# Assay results reported in patent US9452986B2, “6-heteroaryloxy- or 6-aryloxy-quinoline-2-carboxamides and method of use” (AbbVie Inc., priority 2014, dated 2016).
# Like-named read-outs stand apart in the source and are kept apart here.
# Assays:
# recombinant human Nav1.7 = recombinant human Nav1.7 (Homo sapiens (Human), UniProt Q15858); assay: FRET-based membrane potential assay, recombinant human sodium channel Nav1.7; type: cell-based; conditions: read-out: FRET-Membrane Potential Nav1.7 IC50
# recombinant human Nav1.7, sequence (Q15858 whole entry): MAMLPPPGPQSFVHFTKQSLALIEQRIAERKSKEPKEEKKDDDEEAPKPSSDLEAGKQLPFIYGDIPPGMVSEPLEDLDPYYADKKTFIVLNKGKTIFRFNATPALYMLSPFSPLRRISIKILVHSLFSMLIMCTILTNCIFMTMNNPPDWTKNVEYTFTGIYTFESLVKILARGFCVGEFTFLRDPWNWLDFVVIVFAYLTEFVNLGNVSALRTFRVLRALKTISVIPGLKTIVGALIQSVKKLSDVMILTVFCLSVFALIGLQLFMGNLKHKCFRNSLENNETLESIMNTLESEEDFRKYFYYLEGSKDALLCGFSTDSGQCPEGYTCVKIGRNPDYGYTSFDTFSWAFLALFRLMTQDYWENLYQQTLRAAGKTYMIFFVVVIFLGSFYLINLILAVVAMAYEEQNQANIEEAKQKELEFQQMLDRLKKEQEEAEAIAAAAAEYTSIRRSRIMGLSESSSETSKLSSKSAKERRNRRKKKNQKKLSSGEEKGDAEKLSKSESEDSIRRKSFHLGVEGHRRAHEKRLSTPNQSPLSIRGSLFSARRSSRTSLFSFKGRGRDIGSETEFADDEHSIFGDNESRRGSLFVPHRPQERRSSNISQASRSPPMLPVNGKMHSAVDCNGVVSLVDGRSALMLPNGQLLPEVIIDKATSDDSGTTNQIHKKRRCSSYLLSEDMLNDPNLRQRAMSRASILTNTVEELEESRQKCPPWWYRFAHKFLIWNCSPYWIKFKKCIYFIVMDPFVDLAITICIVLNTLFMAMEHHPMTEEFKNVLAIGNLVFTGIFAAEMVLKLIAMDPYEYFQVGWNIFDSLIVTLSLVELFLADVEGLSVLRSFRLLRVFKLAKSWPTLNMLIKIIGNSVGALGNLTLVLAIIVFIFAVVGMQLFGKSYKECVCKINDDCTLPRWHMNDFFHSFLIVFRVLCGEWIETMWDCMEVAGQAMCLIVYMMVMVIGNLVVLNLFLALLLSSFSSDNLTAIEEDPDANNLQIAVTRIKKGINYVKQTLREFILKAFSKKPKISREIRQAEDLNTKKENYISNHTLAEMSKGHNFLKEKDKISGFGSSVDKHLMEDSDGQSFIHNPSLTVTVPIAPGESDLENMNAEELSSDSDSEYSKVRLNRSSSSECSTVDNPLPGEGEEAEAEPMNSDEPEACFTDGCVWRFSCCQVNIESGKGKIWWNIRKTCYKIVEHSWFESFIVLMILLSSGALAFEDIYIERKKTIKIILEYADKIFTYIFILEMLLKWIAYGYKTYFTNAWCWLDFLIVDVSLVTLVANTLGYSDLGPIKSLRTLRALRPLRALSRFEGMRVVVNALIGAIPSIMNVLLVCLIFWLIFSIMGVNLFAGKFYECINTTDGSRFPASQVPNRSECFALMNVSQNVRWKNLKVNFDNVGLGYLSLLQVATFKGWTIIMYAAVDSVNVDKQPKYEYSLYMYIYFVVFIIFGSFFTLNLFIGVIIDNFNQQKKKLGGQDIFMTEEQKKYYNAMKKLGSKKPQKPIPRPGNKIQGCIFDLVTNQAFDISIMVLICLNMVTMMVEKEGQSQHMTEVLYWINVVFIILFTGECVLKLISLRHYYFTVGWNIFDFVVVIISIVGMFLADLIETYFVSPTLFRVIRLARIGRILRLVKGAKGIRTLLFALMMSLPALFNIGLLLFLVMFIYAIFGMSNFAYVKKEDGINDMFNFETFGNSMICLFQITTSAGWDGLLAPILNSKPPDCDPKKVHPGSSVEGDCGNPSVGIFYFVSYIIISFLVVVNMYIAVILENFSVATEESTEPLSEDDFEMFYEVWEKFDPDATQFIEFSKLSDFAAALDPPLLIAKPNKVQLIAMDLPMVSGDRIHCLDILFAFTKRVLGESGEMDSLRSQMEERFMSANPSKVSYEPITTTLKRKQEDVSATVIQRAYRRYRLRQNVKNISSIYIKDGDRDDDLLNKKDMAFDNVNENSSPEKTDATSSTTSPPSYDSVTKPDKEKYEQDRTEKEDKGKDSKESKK
# Outline: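 Channel activation used veratridine at its EC80, set by a dilution curve each experiment, together with Leiurus scorpion venom, added 3 min after compound. Membrane-potential ratio signals from FLIPR Tetra in HEPES-buffered HBSS were fitted to a four-parameter Hill equation for percent inhibition and IC50.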
# [1] = test system: spinal nerve ligated rats; assay: Rat spinal nerve ligation (SNL) model of neuropathic pain, paw withdrawal threshold; type: in vivo; conditions: SNL dose 100 mg/kg; rat, von Frey paw withdrawal threshold; read-out: SNL MPE
# Excerpt: Rat Spinal Nerve Ligation (SNL) Model of Neuropathic Pain.
# The male Sprague Dawley rats (Charles River Laboratories, Wilmington, Mass.), weighing 150-175 g at the time of surgery, were placed under isoflurane anesthesia and a 1.5 cm incision was made dorsal to the lumbosacral plexus. The paraspinal muscles (left side) were separated from the spinous processes, the left L5 and L6 spinal nerves isolated, and tightly ligated with 5-0 silk suture distal to the dorsal root ganglion. Care was taken to avoid ligating the L4 spinal nerve. Following spinal nerve ligation, a minimum of 7 days of recovery and no more than 3 weeks was allowed prior to the behavioral testing (mechanical sensitivity). Only rats with threshold scores ≦4.5 g were considered allodynic and utilized in pharmacological experiments.
# Mechanical sensitivity was measured using calibrated von Frey filaments (Stoelting, Wood Dale, Ill.). […] The von Frey filaments were presented perpendicularly to the plantar surface of the selected hind paw, and then held in this position for approximately 8 seconds with enough force to cause a slight bend in the filament. Positive responses included an abrupt withdrawal of the hind paw from the stimulus, or flinching behavior immediately following removal of the stimulus. […] A percent maximal possible effect (% MPE) of testing compound was calculated according to the formula: (Log [compound−treated threshold]−Log [vehicle−treated threshold])/(Log [maximum threshold]−Log [vehicle−treated threshold])×100%, where the maximum threshold was equal to 15 g.
# The animals were housed in Association for Assessment and Accreditation of Laboratory Animal Care (AAALAC) approved facilities at AbbVie Inc. in a temperature-regulated environment under a controlled 12-hour light-dark cycle, with lights on at 6:00 a.m. Food and water were available ad libitum at all times except during testing. All testing was done following procedures outlined in protocols approved by AbbVie Inc.s' Institutional Animal Care and Use Committee.
# recombinant human Nav1.8 = recombinant human Nav1.8 (Homo sapiens (Human), UniProt Q9Y5Y9); assay: FRET-based membrane potential assay, recombinant human sodium channel Nav1.8; type: cell-based
# recombinant human Nav1.8, sequence (Q9Y5Y9 whole entry): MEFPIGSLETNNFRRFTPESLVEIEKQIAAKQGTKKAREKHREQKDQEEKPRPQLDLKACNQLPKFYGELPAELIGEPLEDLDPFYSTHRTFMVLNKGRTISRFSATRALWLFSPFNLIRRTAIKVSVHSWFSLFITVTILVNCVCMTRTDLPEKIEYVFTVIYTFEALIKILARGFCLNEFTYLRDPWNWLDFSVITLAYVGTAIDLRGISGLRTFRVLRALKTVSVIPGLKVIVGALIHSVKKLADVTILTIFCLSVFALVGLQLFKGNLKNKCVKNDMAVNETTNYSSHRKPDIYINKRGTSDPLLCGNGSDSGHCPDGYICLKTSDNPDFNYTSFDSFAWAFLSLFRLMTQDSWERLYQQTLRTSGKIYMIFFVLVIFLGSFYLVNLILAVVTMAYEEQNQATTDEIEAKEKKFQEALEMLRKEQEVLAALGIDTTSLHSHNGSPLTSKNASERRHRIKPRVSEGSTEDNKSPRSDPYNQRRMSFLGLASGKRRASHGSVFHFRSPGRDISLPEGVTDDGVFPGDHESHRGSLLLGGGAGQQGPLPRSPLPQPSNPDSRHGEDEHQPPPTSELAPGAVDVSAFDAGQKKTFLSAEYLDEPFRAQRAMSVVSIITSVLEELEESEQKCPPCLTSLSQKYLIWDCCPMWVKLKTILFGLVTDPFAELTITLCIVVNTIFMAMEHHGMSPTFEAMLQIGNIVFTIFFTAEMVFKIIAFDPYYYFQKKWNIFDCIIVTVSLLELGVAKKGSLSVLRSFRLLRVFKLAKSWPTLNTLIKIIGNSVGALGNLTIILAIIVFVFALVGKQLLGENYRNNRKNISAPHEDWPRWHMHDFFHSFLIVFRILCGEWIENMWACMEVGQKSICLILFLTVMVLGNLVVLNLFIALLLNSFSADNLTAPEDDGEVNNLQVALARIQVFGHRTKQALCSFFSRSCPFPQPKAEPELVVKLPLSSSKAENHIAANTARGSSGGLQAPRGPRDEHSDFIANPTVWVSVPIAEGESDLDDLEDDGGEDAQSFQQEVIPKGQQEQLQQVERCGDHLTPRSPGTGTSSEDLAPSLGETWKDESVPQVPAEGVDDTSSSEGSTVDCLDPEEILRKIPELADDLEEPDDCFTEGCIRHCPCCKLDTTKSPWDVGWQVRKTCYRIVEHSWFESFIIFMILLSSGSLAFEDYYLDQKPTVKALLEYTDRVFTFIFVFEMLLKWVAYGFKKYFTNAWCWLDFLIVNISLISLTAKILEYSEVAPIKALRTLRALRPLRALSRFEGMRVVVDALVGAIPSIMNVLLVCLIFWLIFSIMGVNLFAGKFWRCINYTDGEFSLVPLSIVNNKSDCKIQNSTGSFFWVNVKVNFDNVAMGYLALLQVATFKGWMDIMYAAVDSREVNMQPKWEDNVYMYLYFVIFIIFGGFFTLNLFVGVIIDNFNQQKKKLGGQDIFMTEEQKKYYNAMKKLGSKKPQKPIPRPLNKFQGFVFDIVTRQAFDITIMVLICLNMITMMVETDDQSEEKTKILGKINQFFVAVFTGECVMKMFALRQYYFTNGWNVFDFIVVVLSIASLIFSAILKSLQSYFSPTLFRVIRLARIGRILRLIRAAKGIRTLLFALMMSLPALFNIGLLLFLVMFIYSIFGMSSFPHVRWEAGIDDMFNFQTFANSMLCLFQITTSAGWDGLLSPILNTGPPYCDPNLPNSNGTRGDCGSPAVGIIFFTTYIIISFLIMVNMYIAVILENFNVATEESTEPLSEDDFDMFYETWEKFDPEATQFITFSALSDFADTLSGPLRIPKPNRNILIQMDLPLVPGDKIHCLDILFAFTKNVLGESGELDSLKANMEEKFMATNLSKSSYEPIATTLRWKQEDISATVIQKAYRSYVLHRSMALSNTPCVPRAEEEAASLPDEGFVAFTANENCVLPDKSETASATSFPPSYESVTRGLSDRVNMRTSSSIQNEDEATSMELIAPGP
# osteoarthritic rats = assay: Osteoarthritic (OA) pain induced by sodium monoiodoacetate (MIA), hind limb grip force; type: in vivo, rat; conditions: Rattus norvegicus, 480 h, rat, 20 days following MIA injection, hind limb grip force, read-out: OA MPE; for inhibition in vivo at 30 mg/kg: OA dose 30 mg/kg; for inhibition in vivo at 10 mg/kg: OA dose 10 mg/kg
# Outline: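 Activity-induced pain was read as maximum compressive hind limb grip force, two sequential trials normalized to body weight, 20 days after intra-articular MIA (3 mg/rat) in male Sprague Dawley rats. Randomized, blinded dosing; effect expressed as return toward naïve-animal response relative to vehicle.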
# [2] = HEK293 cells stably expressing recombinant human Nav1.7, veratridine + scorpion venom depolarization
# [3] = HEK293 cells stably expressing recombinant human Nav1.8, veratridine + scorpion venom depolarization
smiles,measurement,setting,value
"O=C(NC1CCS(=O)(=O)C1)c1ccc2cc(Oc3ccc(C(F)(F)F)cn3)ccc2n1 (stereo not shown) [Example 2, N-(1,1-dioxidotetrahydrothiophen-3-yl)-6-{[5-(trifluoromethyl)pyridin-2-yl]oxy}quinoline-2-carboxamide]",IC50,recombinant human Nav1.7; [2],504 nM
same,inhibition in vivo at 100 mg/kg,[1],54%
same,IC50,recombinant human Nav1.8; [3],648 nM
same,inhibition in vivo at 30 mg/kg,osteoarthritic rats,85%
"O=C(N[C@H]1CCS(=O)(=O)C1)c1ccc2cc(Oc3ccc(C(F)(F)F)cn3)ccc2n1 [Example 4, N-[(3S)-1,1-dioxidotetrahydrothiophen-3-yl]-6-{[5-(trifluoromethyl)pyridin-2-yl]oxy}quinoline-2-carboxamide]",IC50,recombinant human Nav1.7; [2],856 nM
same,inhibition in vivo at 100 mg/kg,[1],56%
same,inhibition in vivo at 30 mg/kg,osteoarthritic rats,60%
"O=C(c1ccc2cc(Oc3ccc(C(F)(F)F)cn3)ccc2n1)N1CC(N2CCOCC2)C1 [Example 6, [3-(morpholin-4-yl)azetidin-1-yl](6-{[5-(trifluoromethyl)pyridin-2-yl]oxy}quinolin-2-yl)methanone]",IC50,recombinant human Nav1.7; [2],2930 nM
same,inhibition in vivo at 100 mg/kg,[1],27%
same,IC50,recombinant human Nav1.8,4610 nM
same,inhibition in vivo at 10 mg/kg,osteoarthritic rats,72%
"O=C(c1ccc2cc(Oc3ccc(C(F)(F)F)cn3)ccc2n1)N1CCC(N2CCOCC2)CC1 [Example 11, [4-(morpholin-4-yl)piperidin-1-yl](6-{[5-(trifluoromethyl)pyridin-2-yl]oxy}quinolin-2-yl)methanone]",IC50,recombinant human Nav1.7; [2],1610 nM
same,inhibition in vivo at 100 mg/kg,[1],34%
same,IC50,recombinant human Nav1.8; [3],1690 nM
same,inhibition in vivo at 10 mg/kg,osteoarthritic rats,72%
"COCCNC(=O)c1ccc2cc(Oc3ccc(C(F)(F)F)cn3)ccc2n1 [Example 22, N-(2-methoxyethyl)-6-{[5-(trifluoromethyl)pyridin-2-yl]oxy}quinoline-2-carboxamide]",IC50,recombinant human Nav1.7; [2],1980 nM
same,inhibition in vivo at 100 mg/kg,[1],72%
same,IC50,recombinant human Nav1.8; [3],3540 nM
same,inhibition in vivo at 30 mg/kg,osteoarthritic rats,73%
"COC[C@H]1CN(C(=O)c2ccc3cc(Oc4ccc(C(F)(F)F)cn4)ccc3n2)CCN1 [Example 31, [(3R)-3-(methoxymethyl)piperazin-1-yl](6-{[5-(trifluoromethyl)pyridin-2-yl]oxy}quinolin-2-yl)methanone]",IC50,recombinant human Nav1.7,619 nM
same,inhibition in vivo at 100 mg/kg,[1],64%
same,IC50,recombinant human Nav1.8; [3],1860 nM
same,inhibition in vivo at 30 mg/kg,osteoarthritic rats,94%
"CN(C)C(=O)CNC(=O)c1ccc2cc(Oc3ccc(C(F)(F)F)cn3)ccc2n1 [Example 33, N-[2-(dimethylamino)-2-oxoethyl]-6-{[5-(trifluoromethyl)pyridin-2-yl]oxy}quinoline-2-carboxamide]",IC50,recombinant human Nav1.7,471 nM
same,inhibition in vivo at 100 mg/kg,[1],50%
same,IC50,recombinant human Nav1.8,740 nM
same,inhibition in vivo at 30 mg/kg,osteoarthritic rats,61%
"O=C(c1ccc2cc(Oc3ccc(C(F)(F)F)cn3)ccc2n1)N1CCC(F)C1 (stereo not shown) [Example 35, (3-fluoropyrrolidin-1-yl)(6-{[5-(trifluoromethyl)pyridin-2-yl]oxy}quinolin-2-yl)methanone]",IC50,recombinant human Nav1.7; [2],1270 nM
same,inhibition in vivo at 100 mg/kg,[1],74%
same,inhibition in vivo at 10 mg/kg,osteoarthritic rats,79%
"O=C(c1ccc2cc(Oc3ccc(C(F)(F)F)cn3)ccc2n1)N1C[C@@H](F)C[C@H]1CO [Example 50, [(2S,4S)-4-fluoro-2-(hydroxymethyl)pyrrolidin-1-yl](6-{[5-(trifluoromethyl)pyridin-2-yl]oxy}quinolin-2-yl)methanone]",IC50,recombinant human Nav1.7; [2],12200 nM
same,inhibition in vivo at 100 mg/kg,[1],94%
same,inhibition in vivo at 30 mg/kg,osteoarthritic rats,81%
"O=C(c1ccc2cc(Oc3ccc(C(F)(F)F)cn3)ccc2n1)N1CC[C@H](F)C1 [Example 51, [(3S)-3-fluoropyrrolidin-1-yl](6-{[5-(trifluoromethyl)pyridin-2-yl]oxy}quinolin-2-yl)methanone]",IC50,recombinant human Nav1.7; [2],2250 nM
same,inhibition in vivo at 100 mg/kg,[1],90%
same,inhibition in vivo at 30 mg/kg,osteoarthritic rats,52%
"O=C(c1ccc2cc(Oc3ccc(C(F)(F)F)cn3)ccc2n1)N1CC[C@@H](F)C1 [Example 52, [(3R)-3-fluoropyrrolidin-1-yl](6-{[5-(trifluoromethyl)pyridin-2-yl]oxy}quinolin-2-yl)methanone]",IC50,recombinant human Nav1.7; [2],2980 nM
same,inhibition in vivo at 100 mg/kg,[1],81%
same,inhibition in vivo at 30 mg/kg,osteoarthritic rats,86%
"O=C(NC1CC(F)(F)C1)c1ccc2cc(Oc3ccc(C(F)(F)F)cn3)ccc2n1 [Example 59, N-(3,3-difluorocyclobutyl)-6-{[5-(trifluoromethyl)pyridin-2-yl]oxy}quinoline-2-carboxamide]",IC50,recombinant human Nav1.7,1700 nM
same,inhibition in vivo at 100 mg/kg,[1],84%
same,inhibition in vivo at 30 mg/kg,osteoarthritic rats,83%
"O=C(NCC(F)(F)F)c1ccc2cc(Oc3ccc(C(F)(F)F)cn3)ccc2n1 [Example 344, N-(2,2,2-trifluoroethyl)-6-{[5-(trifluoromethyl)pyridin-2-yl]oxy}quinoline-2-carboxamide]",IC50,recombinant human Nav1.7; [2],2100 nM
same,inhibition in vivo at 100 mg/kg,[1],76%
same,IC50,recombinant human Nav1.8; [3],670 nM
same,inhibition in vivo at 30 mg/kg,osteoarthritic rats,59%
